Several values for one entry are separate records, joined by “and”; a condition that tells them apart may be missing. Equal values may be shown once. Toxic doses and inconclusive results are not listed.

For this assay, the system named is CD2F1 mice, L1210 leukemia ip, survival T/C. In words: NCI In Vivo Anticancer Drug Screen. Data for tumor model L1210 Leukemia (intraperitoneal) in CD2F1 (CDF1) mice. To be noted: higher = longer survival. In a few lines:
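Read-out first: treated-group measurement over vehicle-control measurement, expressed as a ratio. Animals bore a transplanted tumor line and were dosed with compound or vehicle.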

[1] abbreviates: endpoint: mean survival time, dose: 200.0 mg/kg/injection, schedule: Q01DX009 (ip), vehicle: other.
[2] abbreviates: endpoint: mean survival time, dose: 100.0 mg/kg/injection, schedule: Q04DX003 (ip), vehicle: saline with Tween-80.
[3] abbreviates: endpoint: mean survival time, dose: 200.0 mg/kg/injection, schedule: Q04DX003 (ip), vehicle: saline with Tween-80.

For the molecule `NC(CCCCNC(c1ccccc1)(c1ccccc1)c1ccccc1)C(=O)O` (stereo not given), the T/C is, setting by setting: (endpoint: mean survival time, dose: 25.0 mg/kg/injection, schedule: Q01DX009 (ip), vehicle: saline) 96 % of control; (endpoint: mean survival time, dose: 50.0 mg/kg/injection, schedule: Q01DX009 (ip), vehicle: saline) 94 % of control; (endpoint: mean survival time, dose: 100.0 mg/kg/injection, schedule: Q01DX009 (ip), vehicle: saline) 103 % of control.

Take `Cc1ccc(S(=O)(=O)NCCN(CCNS(=O)(=O)c2ccc(C)cc2)S(=O)(=O)c2ccc(C)cc2)cc1`: the T/C reads like this: (endpoint: mean survival time, dose: 12.5 mg/kg/injection, schedule: Q01DX009 (ip), vehicle: other) 88 % of control; (endpoint: mean survival time, dose: 25.0 mg/kg/injection, schedule: Q01DX009 (ip), vehicle: other) 86 % of control; (endpoint: mean survival time, dose: 50.0 mg/kg/injection, schedule: Q01DX009 (ip), vehicle: other) 86 % of control; (endpoint: mean survival time, dose: 100.0 mg/kg/injection, schedule: Q01DX009 (ip), vehicle: other) 92 % of control; under setting [1], 105 % of control.

As for `CN(N=O)C(N)=O`, the T/C (endpoint: mean survival time, dose: 5.0 mg/kg/injection, schedule: Q03DX003 (ip), vehicle: saline) was 112 % of control; the T/C (endpoint: mean survival time, dose: 5.0 mg/kg/injection, schedule: Q04DX003 (ip), vehicle: saline) was 117 % of control; the T/C (endpoint: mean survival time, dose: 10.0 mg/kg/injection, schedule: Q01DX007 (ip), vehicle: saline) was 166 % of control; the T/C (endpoint: mean survival time, dose: 10.0 mg/kg/injection, schedule: Q01DX009 (ip), vehicle: saline) is 175 % of control; the T/C (endpoint: mean survival time, dose: 20.0 mg/kg/injection, schedule: Q01DX007 (ip), vehicle: saline) was 124 % of control; the T/C (endpoint: mean survival time, dose: 20.0 mg/kg/injection, schedule: Q03DX003 (ip), vehicle: saline) was 156 % of control. Besides, the T/C was 172 % of control (endpoint: median survival time, dose: 12.0 mg/kg/injection, schedule: Q01DX009 (ip), vehicle: saline + alcohol); 113 % of control (endpoint: median survival time, dose: 14.0 mg/kg/injection, schedule: Q04DX003 (ip), vehicle: saline); 106 % of control (endpoint: median survival time, dose: 14.0 mg/kg/injection, schedule: Q07DX003 (ip), vehicle: saline + alcohol); 118 % of control (endpoint: median survival time, dose: 20.0 mg/kg/injection, schedule: Q07DX003 (ip), vehicle: saline + alcohol); 116 % of control (endpoint: median survival time, dose: 26.0 mg/kg/injection, schedule: Q07DX003 (ip), vehicle: saline + alcohol); 123 % of control (endpoint: median survival time, dose: 33.0 mg/kg/injection, schedule: Q07DX003 (ip), vehicle: saline + alcohol). Also, the T/C reads like this: (endpoint: median survival time, dose: 36.0 mg/kg/injection, schedule: Q04DX003 (ip), vehicle: saline + alcohol) 151 % of control; (endpoint: median survival time, dose: 40.0 mg/kg/injection, schedule: Q04DX003 (ip), vehicle: saline) 160 % of control; (endpoint: median survival time, dose: 50.0 mg/kg/injection, schedule: Q01DX009 (ip), vehicle: saline + alcohol) 107 % of control; (endpoint: median survival time, dose: 60.0 mg/kg/injection, schedule: Q04DX003 (ip), vehicle: saline + alcohol) 157 % of control; (endpoint: median survival time, dose: 67.0 mg/kg/injection, schedule: Q04DX003 (ip), vehicle: saline) 167 % of control; (endpoint: median survival time, dose: 100.0 mg/kg/injection, schedule: Q04DX003 (ip), vehicle: saline + alcohol) 97 % of control.

`[Cl][Pt+2][Cl].[NH-]CC1(C[NH-])CCCCC1`: the T/C (endpoint: mean survival time, dose: 25.0 mg/kg/injection, schedule: Q04DX003 (ip), vehicle: saline) is 95 % of control.

In the case of `CCCC(C)C1(CC)NC(C)(C)CC(C)O1` (stereo not given), the T/C under setting [2] was 103 % of control and the T/C under setting [3] is 87 % of control.

Take `CC([NH-])CC[NH-].O=[N+]([O-])O.O=[N+]([O-])O.[Pt+2]` (stereo not given): the T/C (endpoint: mean survival time, dose: 6.25 mg/kg/injection, schedule: Q04DX003 (ip), vehicle: saline with Tween-80) was 169 % of control.

As for `CC(C)(C)OC1C2C=CC1C1C2C2(Cl)C(Cl)=C(Cl)C1(Cl)C21OCCO1` (stereo not given), the T/C reads like this: (endpoint: mean survival time, dose: 41.25 mg/kg/injection, schedule: Q04DX002 (ip), vehicle: Klucel (hydroxypropylcellulose) (HPC)) 98 % of control; (endpoint: mean survival time, dose: 50.0 mg/kg/injection, schedule: Q04DX002 (ip), vehicle: Klucel (hydroxypropylcellulose) (HPC)) 97 % of control; (endpoint: mean survival time, dose: 82.5 mg/kg/injection, schedule: Q04DX002 (ip), vehicle: Klucel (hydroxypropylcellulose) (HPC)) 100 % of control; (endpoint: mean survival time, dose: 100.0 mg/kg/injection, schedule: Q04DX002 (ip), vehicle: Klucel (hydroxypropylcellulose) (HPC)) 98 % of control; (endpoint: mean survival time, dose: 165.0 mg/kg/injection, schedule: Q04DX002 (ip), vehicle: Klucel (hydroxypropylcellulose) (HPC)) 98 % of control; (endpoint: mean survival time, dose: 200.0 mg/kg/injection, schedule: Q04DX002 (ip), vehicle: Klucel (hydroxypropylcellulose) (HPC)) 98 % of control. Further, the T/C was 98 % of control (endpoint: mean survival time, dose: 330.0 mg/kg/injection, schedule: Q04DX002 (ip), vehicle: Klucel (hydroxypropylcellulose) (HPC)) and 97 % of control (endpoint: mean survival time, dose: 400.0 mg/kg/injection, schedule: Q04DX002 (ip), vehicle: Klucel (hydroxypropylcellulose) (HPC)).

Take `CN1CC(C(=O)NC(C)(C)C)CC(c2ccccc2)C1` (stereo not given): the T/C is 102 % of control (endpoint: mean survival time, dose: 6.25 mg/kg/injection, schedule: Q01DX001 (ip), vehicle: saline with Tween-80); 106 % of control (endpoint: mean survival time, dose: 12.5 mg/kg/injection, schedule: Q01DX001 (ip), vehicle: saline with Tween-80); 100 % of control (endpoint: mean survival time, dose: 25.0 mg/kg/injection, schedule: Q01DX001 (ip), vehicle: saline with Tween-80).

With `CC(O)CNCCNC(=O)CNC(=O)C=[N+]=[N-]` (stereo not given), the T/C was 108 % of control under setting [1] and 155 % of control (endpoint: mean survival time, dose: 800.0 mg/kg/injection, schedule: Q01DX009 (ip), vehicle: other).

In the case of `COC(=O)c1cccc(N=NN(C)C)c1`, the T/C runs as follows: (endpoint: mean survival time, dose: 23.0 mg/kg/injection, schedule: Q01DX009 (ip), vehicle: Klucel (hydroxypropylcellulose) (HPC)) 108 % of control; (endpoint: mean survival time, dose: 39.0 mg/kg/injection, schedule: Q01DX009 (ip), vehicle: Klucel (hydroxypropylcellulose) (HPC)) 98 % of control; (endpoint: mean survival time, dose: 65.0 mg/kg/injection, schedule: Q01DX009 (ip), vehicle: Klucel (hydroxypropylcellulose) (HPC)) 97 % of control; (endpoint: mean survival time, dose: 108.0 mg/kg/injection, schedule: Q01DX009 (ip), vehicle: Klucel (hydroxypropylcellulose) (HPC)) 104 % of control.

For `NC(=S)N/N=C\c1nccc2c(C(F)(F)C(F)(F)C(F)(F)F)cccc12`, the T/C is, setting by setting: (endpoint: mean survival time, dose: 100.0 mg/kg/injection, schedule: Q04DX002 (ip), vehicle: saline with Tween-80) 93 % of control; (endpoint: mean survival time, dose: 200.0 mg/kg/injection, schedule: Q04DX002 (ip), vehicle: saline with Tween-80) 96 % of control; (endpoint: mean survival time, dose: 400.0 mg/kg/injection, schedule: Q04DX002 (ip), vehicle: saline with Tween-80) 96 % of control.

On to `COC(=O)c1ccccc1-c1ccccc1C(=O)O`, for which the T/C is, setting by setting: (endpoint: mean survival time, dose: 44.0 mg/kg/injection, schedule: Q01DX001 (ip), vehicle: other) 97 % of control; (endpoint: mean survival time, dose: 66.0 mg/kg/injection, schedule: Q01DX001 (ip), vehicle: other) 97 % of control; (endpoint: mean survival time, dose: 100.0 mg/kg/injection, schedule: Q01DX001 (ip), vehicle: other) 103 % of control; (endpoint: mean survival time, dose: 150.0 mg/kg/injection, schedule: Q01DX001 (ip), vehicle: other) 100 % of control.

For `C=CC(=O)NC12CC3CC(CC(C3)C1)C2`, the T/C by setting is: (endpoint: mean survival time, dose: 100.0 mg/kg/injection, schedule: Q04DX003 (ip), vehicle: saline) 100 % of control; (endpoint: mean survival time, dose: 200.0 mg/kg/injection, schedule: Q04DX003 (ip), vehicle: saline) 101 % of control; (endpoint: mean survival time, dose: 400.0 mg/kg/injection, schedule: Q04DX003 (ip), vehicle: saline) 101 % of control.

Take `C[Si](C)(CN)CN.O=C([O-])C1(C(=O)[O-])CCC1.[Pt+4]`: the T/C reads like this: (endpoint: median survival time, dose: 2.5 mg/kg/injection, schedule: Q04DX003 (ip), vehicle: water) 110 % of control; (endpoint: median survival time, dose: 5.0 mg/kg/injection, schedule: Q04DX003 (ip), vehicle: water) 107 % of control; (endpoint: median survival time, dose: 10.0 mg/kg/injection, schedule: Q04DX003 (ip), vehicle: water) 122 % of control; (endpoint: median survival time, dose: 20.0 mg/kg/injection, schedule: Q04DX003 (ip), vehicle: water) 151 % of control; (endpoint: median survival time, dose: 25.0 mg/kg/injection, schedule: Q04DX003 (ip), vehicle: water) 151 % of control; (endpoint: median survival time, dose: 40.0 mg/kg/injection, schedule: Q04DX003 (ip), vehicle: water) 164 % of control and 177 % of control. Further, the T/C was 175 % of control (endpoint: median survival time, dose: 50.0 mg/kg/injection, schedule: Q04DX003 (ip), vehicle: water); 181 % of control (endpoint: median survival time, dose: 60.0 mg/kg/injection, schedule: Q04DX003 (ip), vehicle: water); 244 % of control (endpoint: median survival time, dose: 80.0 mg/kg/injection, schedule: Q04DX003 (ip), vehicle: water); 175 % of control (endpoint: median survival time, dose: 100.0 mg/kg/injection, schedule: Q04DX003 (ip), vehicle: water).

As for `COC/C(=N/Nc1ccc([N+](=O)[O-])cc1[N+](=O)[O-])c1ccccc1`, the T/C reads like this: under setting [2], 102 % of control; under setting [3], 108 % of control; (endpoint: mean survival time, dose: 400.0 mg/kg/injection, schedule: Q04DX003 (ip), vehicle: saline with Tween-80) 100 % of control.

(Values after PubChem BioAssay AID256 (DTP/NCI, 2004).)
